Values of other authors as cited in patent US20180140739A1, “HAEMOSTATIC DEVICE” (HAEMOSTATIX LIMITED, priority 2015, published 2018).

Molecular target: T1, fibrinogen hole 'a' and hole 'b' (Homo sapiens, UniProt P02675+P02679)
T1 sequence (P02679 27-433 limits assumed): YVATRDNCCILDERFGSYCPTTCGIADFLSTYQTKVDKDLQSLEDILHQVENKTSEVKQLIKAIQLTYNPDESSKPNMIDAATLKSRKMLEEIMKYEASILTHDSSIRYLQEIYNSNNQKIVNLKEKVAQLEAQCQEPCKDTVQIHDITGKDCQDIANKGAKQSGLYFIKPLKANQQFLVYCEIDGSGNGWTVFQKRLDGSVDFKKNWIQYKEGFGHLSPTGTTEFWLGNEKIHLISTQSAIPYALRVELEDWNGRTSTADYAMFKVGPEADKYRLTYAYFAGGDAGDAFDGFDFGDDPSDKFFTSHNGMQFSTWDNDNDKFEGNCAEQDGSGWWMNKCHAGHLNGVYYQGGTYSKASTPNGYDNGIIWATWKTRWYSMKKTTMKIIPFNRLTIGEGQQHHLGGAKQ
T1 sequence (P02675 31-491): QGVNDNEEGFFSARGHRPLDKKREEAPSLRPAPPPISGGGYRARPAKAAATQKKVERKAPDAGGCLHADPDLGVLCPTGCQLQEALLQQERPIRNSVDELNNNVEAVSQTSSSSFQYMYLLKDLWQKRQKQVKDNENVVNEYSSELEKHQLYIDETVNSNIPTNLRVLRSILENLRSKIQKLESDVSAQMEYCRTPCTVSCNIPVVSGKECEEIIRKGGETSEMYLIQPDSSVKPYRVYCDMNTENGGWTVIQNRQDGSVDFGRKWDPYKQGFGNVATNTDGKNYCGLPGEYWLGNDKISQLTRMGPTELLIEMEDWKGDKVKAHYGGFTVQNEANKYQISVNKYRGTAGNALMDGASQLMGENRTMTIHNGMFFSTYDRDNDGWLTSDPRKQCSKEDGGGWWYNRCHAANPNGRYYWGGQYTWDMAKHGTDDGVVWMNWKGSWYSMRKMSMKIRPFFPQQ
T1 sequence (P02671 20-629 partner limits assumed): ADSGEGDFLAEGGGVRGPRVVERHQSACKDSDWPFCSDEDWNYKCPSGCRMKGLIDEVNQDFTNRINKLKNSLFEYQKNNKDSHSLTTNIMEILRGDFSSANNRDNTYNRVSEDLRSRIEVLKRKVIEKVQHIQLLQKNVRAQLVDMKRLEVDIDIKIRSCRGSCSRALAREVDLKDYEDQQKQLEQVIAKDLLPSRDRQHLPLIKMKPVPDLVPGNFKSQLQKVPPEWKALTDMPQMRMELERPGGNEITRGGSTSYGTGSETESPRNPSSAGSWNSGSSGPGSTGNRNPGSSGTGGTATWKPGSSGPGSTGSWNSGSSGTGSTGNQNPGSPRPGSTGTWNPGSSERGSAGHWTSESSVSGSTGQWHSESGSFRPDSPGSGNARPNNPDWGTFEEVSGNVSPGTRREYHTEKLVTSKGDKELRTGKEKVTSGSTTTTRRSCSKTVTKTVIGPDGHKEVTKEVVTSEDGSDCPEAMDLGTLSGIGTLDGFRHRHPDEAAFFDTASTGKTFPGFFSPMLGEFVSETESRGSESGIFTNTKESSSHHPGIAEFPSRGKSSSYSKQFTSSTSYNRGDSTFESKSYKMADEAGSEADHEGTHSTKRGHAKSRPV
Conditions: cited from earlier work

Q: Which “binding preference for hole 'a' / hole 'b' of fibrinogen” value does the source give for GPRP here?
A: binds strongly and preferentially to the ‘a’ hole of fibrinogen
